In US20230131025A1, “QUINOLYL PHOSPHINE OXIDE COMPOUND, AND COMPOSITION AND APPLICATION THEREOF” (Betta Pharmaceuticals Co., Ltd., priority 2020, published 2023):
pIC50: −log10 of the molar value.

Experiments:
Experiment in all cases: Kinase inhibition assay (mobility shift)
Format in all cases: biochemical
EGFR WT = EGFR WT (Homo sapiens, UniProt P00533)
Summary of the method: (§1)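 Caliper mobility-shift read of substrate conversion after kinase-compound preincubation 10 min at room temperature, then ATP/substrate addition and reaction at room temperature. Ten-point 3-fold dilutions from 3,000 or 100 nM top; IC50 from variable-slope four-parameter fit of percent inhibition.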

EGFR Δ19del/T790M/C797S = EGFR Δ19del/T790M/C797S (Homo sapiens, UniProt P00533, T790M/C797S, form not given)
Summary of the method: as §1

IGF1R = IGF1R (Homo sapiens, UniProt P08069)
Summary of the method: as §1

Chain of IGF1R (P08069 31-1367, species assumed): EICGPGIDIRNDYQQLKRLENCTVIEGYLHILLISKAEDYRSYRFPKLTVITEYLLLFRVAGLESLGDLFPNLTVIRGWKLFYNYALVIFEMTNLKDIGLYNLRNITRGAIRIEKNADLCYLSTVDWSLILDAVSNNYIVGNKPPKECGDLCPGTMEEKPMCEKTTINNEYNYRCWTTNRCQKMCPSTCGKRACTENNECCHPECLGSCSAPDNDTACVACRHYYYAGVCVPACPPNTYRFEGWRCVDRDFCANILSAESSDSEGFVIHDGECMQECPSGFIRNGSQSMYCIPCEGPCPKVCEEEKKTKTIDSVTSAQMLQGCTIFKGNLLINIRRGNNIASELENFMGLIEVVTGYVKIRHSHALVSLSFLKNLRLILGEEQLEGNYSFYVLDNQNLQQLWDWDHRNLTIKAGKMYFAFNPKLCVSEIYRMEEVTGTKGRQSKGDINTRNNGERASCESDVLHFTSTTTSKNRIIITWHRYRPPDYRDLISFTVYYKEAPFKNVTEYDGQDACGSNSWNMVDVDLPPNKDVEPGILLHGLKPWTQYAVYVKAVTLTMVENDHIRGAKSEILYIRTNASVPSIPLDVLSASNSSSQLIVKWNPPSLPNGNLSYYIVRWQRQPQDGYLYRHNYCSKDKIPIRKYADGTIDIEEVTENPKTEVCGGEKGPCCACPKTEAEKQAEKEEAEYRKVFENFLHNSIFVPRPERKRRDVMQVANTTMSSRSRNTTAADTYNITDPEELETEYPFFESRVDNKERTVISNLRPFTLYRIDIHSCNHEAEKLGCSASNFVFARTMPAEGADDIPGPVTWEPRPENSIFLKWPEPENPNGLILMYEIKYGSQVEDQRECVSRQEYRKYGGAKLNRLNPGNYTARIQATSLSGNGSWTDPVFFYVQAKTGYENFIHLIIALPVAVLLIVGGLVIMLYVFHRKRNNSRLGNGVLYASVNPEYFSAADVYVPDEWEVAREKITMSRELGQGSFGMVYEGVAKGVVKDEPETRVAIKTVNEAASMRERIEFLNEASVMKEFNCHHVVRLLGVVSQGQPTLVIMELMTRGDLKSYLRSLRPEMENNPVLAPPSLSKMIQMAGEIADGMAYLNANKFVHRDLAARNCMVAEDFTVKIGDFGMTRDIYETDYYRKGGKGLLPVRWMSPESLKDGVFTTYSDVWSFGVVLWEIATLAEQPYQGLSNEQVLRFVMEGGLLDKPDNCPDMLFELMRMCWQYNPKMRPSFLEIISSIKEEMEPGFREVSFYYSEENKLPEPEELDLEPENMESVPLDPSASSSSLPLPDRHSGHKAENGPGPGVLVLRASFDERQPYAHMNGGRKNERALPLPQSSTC
Chain of EGFR Δ19del/T790M/C797S (P00533 with tags, fused parts or gaps DEL746-750/T790M/C797S, form open): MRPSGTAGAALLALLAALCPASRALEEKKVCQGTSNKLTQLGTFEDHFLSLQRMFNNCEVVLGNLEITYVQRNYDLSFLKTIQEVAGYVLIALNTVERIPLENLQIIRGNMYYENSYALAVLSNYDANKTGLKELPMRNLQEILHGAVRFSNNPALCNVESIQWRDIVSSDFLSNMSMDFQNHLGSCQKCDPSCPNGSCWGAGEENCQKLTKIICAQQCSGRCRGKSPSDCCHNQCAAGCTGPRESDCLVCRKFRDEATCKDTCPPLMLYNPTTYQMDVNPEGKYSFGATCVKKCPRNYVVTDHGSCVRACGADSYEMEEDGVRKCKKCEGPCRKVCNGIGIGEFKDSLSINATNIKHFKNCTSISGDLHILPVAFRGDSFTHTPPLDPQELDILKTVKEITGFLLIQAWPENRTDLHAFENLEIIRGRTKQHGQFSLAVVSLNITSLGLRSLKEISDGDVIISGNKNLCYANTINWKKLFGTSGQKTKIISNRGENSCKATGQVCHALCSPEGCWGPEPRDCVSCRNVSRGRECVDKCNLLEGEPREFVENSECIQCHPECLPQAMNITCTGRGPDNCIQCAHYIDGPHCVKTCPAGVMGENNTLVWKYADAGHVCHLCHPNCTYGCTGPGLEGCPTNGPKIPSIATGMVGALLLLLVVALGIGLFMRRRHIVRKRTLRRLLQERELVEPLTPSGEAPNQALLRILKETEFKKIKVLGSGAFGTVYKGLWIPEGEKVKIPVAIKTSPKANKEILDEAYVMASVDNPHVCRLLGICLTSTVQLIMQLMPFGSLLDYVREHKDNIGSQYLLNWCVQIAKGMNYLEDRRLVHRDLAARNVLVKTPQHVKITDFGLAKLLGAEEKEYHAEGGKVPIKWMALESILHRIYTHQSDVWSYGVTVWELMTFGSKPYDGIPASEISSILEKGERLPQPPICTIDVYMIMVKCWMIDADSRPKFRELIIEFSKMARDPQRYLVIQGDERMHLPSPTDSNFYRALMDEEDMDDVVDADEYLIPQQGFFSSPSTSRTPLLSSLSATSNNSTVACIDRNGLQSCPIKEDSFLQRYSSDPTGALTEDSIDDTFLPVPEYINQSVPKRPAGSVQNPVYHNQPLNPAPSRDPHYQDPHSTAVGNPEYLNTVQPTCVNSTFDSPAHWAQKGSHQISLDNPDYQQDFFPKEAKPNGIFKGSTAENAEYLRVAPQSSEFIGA
Chain of EGFR WT (P00533 25-1210): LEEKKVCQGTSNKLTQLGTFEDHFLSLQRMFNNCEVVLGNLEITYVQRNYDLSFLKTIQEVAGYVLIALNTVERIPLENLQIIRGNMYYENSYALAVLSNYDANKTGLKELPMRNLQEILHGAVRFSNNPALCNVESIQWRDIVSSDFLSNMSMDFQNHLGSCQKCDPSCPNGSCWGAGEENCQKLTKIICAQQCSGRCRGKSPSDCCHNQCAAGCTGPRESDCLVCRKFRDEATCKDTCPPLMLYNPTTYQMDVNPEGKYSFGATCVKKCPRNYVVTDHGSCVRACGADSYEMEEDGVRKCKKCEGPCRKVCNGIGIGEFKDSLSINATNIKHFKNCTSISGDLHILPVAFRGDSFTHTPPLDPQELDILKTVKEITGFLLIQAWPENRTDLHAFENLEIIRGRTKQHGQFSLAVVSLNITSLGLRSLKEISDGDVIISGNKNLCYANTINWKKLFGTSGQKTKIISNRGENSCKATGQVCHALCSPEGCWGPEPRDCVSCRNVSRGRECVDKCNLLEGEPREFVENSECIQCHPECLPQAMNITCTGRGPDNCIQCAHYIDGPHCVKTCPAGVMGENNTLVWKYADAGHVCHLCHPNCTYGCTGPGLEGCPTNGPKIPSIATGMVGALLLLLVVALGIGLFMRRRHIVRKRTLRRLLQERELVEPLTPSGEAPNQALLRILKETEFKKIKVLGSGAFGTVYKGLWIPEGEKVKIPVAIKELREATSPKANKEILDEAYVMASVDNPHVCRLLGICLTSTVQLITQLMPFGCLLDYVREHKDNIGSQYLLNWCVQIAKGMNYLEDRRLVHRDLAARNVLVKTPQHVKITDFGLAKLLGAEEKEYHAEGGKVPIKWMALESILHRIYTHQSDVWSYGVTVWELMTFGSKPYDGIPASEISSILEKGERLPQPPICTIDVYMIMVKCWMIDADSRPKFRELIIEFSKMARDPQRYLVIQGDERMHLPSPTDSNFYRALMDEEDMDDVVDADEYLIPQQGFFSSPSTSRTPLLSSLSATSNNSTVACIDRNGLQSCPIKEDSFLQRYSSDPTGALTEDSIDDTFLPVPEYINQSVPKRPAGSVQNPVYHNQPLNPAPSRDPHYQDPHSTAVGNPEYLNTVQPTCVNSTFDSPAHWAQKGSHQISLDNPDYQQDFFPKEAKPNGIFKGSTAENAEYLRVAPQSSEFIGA

Question: How did the pIC50 (EGFR WT) turn out when `COc1cc(N2CCC(N3CCN(C)CC3)CC2)c(C)cc1Nc1ncc(Br)c(Nc2ccc3nc(C4CC4)ccc3c2P(C)(C)=O)n1` [Compound J-022, (6-((5-Bromo-2-((2-methoxy-5-methyl-4-(4-(4-methylpiperazin-1-yl)piperidin-1-yl)phenyl)amino)pyrimidin-4-yl)amino)-2-cyclopropylquinolin-5-yl)dimethylphosphine oxide] was run?
Answer: 7.69

Question: What about the pIC50 (EGFR Δ19del/T790M/C797S) of the same compound?
Answer: 9.52

Question: And the pIC50 (IGF1R)?
Answer: 6.71
